The source made the active and inactive calls. The rule behind the calls is not given here.

Series [1] has as its system Trypanosoma cruzi. Put plainly: Antitrypanosomal activity against Trypanosoma cruzi K98 bloodstream form infected in C3H/HeNk mouse assessed as reduction in parasite burden in cardiac muscle at 15 mg/kg/day, po administered via gavage for 30 consecutive days starting from 90 days post infection and measured at 180 days post infection in presence of benznidazole by qRT-PCR analysis. It counts as functional, organism-based. (In general: Quantitative PCR measures a nucleic acid by following its amplification.)

The subject of series [2] is Trypanosoma cruzi. Description: Antitrypanosomal activity against Trypanosoma cruzi K98 bloodstream form infected in C3H/HeNk mouse assessed as change in QRS morphology at 15 mg/kg/day, po administered via gavage for 30 consecutive days starting from 90 days post infection and measured at 120 days post infection in presence of benznidazole by electrocardiographic analysis (reference value: 25 %). It counts as functional.

Series [3] concerns Trypanosoma cruzi. Put plainly: Antitrypanosomal activity against Trypanosoma cruzi K98 bloodstream form infected in C3H/HeNk mouse assessed as reduction in cardiac tissue inflammation at 15 mg/kg/day, po administered via gavage for 30 consecutive days starting from 90 days post infection and measured at 180 days post infection in presence of benznidazole by hematoxylin and eosin staining based assay. It counts as functional, organism-based.

Series [4] relates to Trypanosoma cruzi. Put plainly: Antitrypanosomal activity against Trypanosoma cruzi K98 bloodstream form infected in C3H/HeNk mouse assessed as effect on QT interval at 15 mg/kg/day, po administered via gavage for 30 consecutive days starting from 90 days post infection and measured at 120 to 170 days post infection in presence of benznidazole by electrocardiographic analysis. It counts as functional, organism-based.

The subject of series [5] is Trypanosoma cruzi. Put plainly: Antitrypanosomal activity against Trypanosoma cruzi K98 bloodstream form infected in C3H/HeNk mouse assessed as effect on PR interval at 15 mg/kg/day, po administered via gavage for 30 consecutive days starting from 90 days post infection and measured at 120 to 170 days post infection in presence of benznidazole by electrocardiographic analysis. It counts as functional, organism-based.

Series [6] deals with Trypanosoma cruzi. Description: Antitrypanosomal activity against Trypanosoma cruzi K98 bloodstream form infected in C3H/HeNk mouse assessed as effect on heart rate at 15 mg/kg/day, po administered via gavage for 30 consecutive days starting from 90 days post infection and measured at 120 to 170 days post infection in presence of benznidazole by electrocardiographic analysis. It counts as functional, organism-based.

For series [7], the system named is Trypanosoma cruzi. Description: Antitrypanosomal activity against Trypanosoma cruzi K98 bloodstream form infected in C3H/HeNk mouse assessed as reduction in parasite burden in blood at 15 mg/kg/day, po administered via gavage for 30 consecutive days starting from 90 days post infection and measured at 180 days post infection in presence of benznidazole by qRT-PCR analysis. It counts as functional, organism-based.

Series [8] has as its system Trypanosoma cruzi. Description: Antitrypanosomal activity against Trypanosoma cruzi K98 bloodstream form infected in C3H/HeNk mouse assessed as adipocytes replacement in skeletal muscle by measuring number of adipocyte at 15 mg/kg/day, po administered via gavage for 30 consecutive days starting from 90 days post infection and measured at 180 days post infection in presence of benznidazole by hematoxylin and eosin staining based …. It counts as functional.

The subject of series [9] is Trypanosoma cruzi. Description: Antitrypanosomal activity against Trypanosoma cruzi K98 bloodstream form infected in C3H/HeNk mouse assessed as change in QRS morphology at 15 mg/kg/day, po administered via gavage for 30 consecutive days starting from 90 days post infection and measured at 170 days post infection in presence of benznidazole by electrocardiographic analysis (reference value: 25 %). It counts as functional.

The subject of series [10] is Trypanosoma cruzi. Put plainly: Antitrypanosomal activity against Trypanosoma cruzi K98 bloodstream form infected in C3H/HeNk mouse assessed as reduction in parasite burden in skeletal muscle at 15 mg/kg/day, po administered via gavage for 30 consecutive days starting from 90 days post infection and measured at 180 days post infection in presence of benznidazole by qRT-PCR analysis. It counts as functional, organism-based.

In series [11] the test system is Trypanosoma cruzi. Description: Antitrypanosomal activity against Trypanosoma cruzi K98 bloodstream form infected in C3H/HeNk mouse assessed as effect on heart rate duration at 15 mg/kg/day, po administered via gavage for 30 consecutive days starting from 90 days post infection and measured at 120 to 170 days post infection in presence of benznidazole by electrocardiographic analysis. It counts as functional, organism-based.

For the next series, the system named is Vero. Description: Cytotoxicity against African green monkey Vero cells at 0.5 to 20 uM after 72 hrs by propidium iodide staining based flow cytometric analysis. It counts as cell-based. As to conditions: chlorocebus sabaeus.
Series [12] concerns Trypanosoma cruzi. Description: Antitrypanosomal activity against Trypanosoma cruzi K98 bloodstream form infected in C3H/HeNk mouse assessed as effect on RR interval at 15 mg/kg/day, po administered via gavage for 30 consecutive days starting from 90 days post infection and measured at 120 to 170 days post infection in presence of benznidazole by electrocardiographic analysis. It counts as functional, organism-based.

Series [13] in a line: Toxicity in C3H/HeNk mouse infected with Trypanosoma cruzi K98 bloodstream form assessed as body weight gain at 15 mg/kg/day, po administered via gavage for 30 consecutive days starting from 90 days post infection measured up to 120 days post infection in presence of benznidazole. It counts as organism-based. As to conditions: in vivo.

On to `COC(=O)C1=C(C)NC(C)=C(C(=O)O[C@@H]2CCCN(Cc3ccccc3)C2)[C@@H]1c1cccc([N+](=O)[O-])c1.Cl`, for which the result in the series with Trypanosoma cruzi [1], with Trypanosoma cruzi [4], with Trypanosoma cruzi [5], in the series on Trypanosoma cruzi [6], in the series with Trypanosoma cruzi [11] and in the series on Trypanosoma cruzi [12] was inactive. The Activity is 50% with Trypanosoma cruzi [2]; 1 - 3 in the series with Trypanosoma cruzi [8]; 50% in the series on Trypanosoma cruzi [9]; “Non-Toxic” in the series with Vero; “Non-Toxic” in series [13]. In addition, the result in the series with Trypanosoma cruzi [3], in the series on Trypanosoma cruzi [7] and in the series with Trypanosoma cruzi [10] was Active.
